Where two headings read alike, the source gives them in different places.
Assays:
[1] = Mitochondrial toxicity (Glu/Gal) assay; assay type: cell-based; conditions: for Score: mitotoxicity score, Glu/Gal assay; for Δ IC50, glu/IC50, gal: ratio IC50 glu / IC50 gal
Description: (§1) The compounds of the invention/examples may have advantages associated with in vitro potency, kill kinetics (i.e. bactericidal effect) in vitro, PK properties, food effect, safety/toxicity (including liver toxicity, coagulation, 5-LO oxygenase), metabolic stability, Ames II negativity, MNT negativity, aqueous based solubility (and ability to formulate) and/or cardiovascular effect e.g. on animals (e.g. anesthetized guinea pig). Data that is generated/calculated may be obtained using standard methods/assays, for instance that are available in the literature or which may be performed by a supplier (e.g. Microsomal Stability Assay—Cyprotex, Mitochondrial toxicity (Glu/Gal) assay—Cyprotex, as well as literature CYP cocktail inhibition assays). GSH can be measured (reactive metabolites, glucuronidation) to observe if a dihydrodiol is observed by LCMS (fragmentation ions), which would correspond to a dihydroxylation on the core heterocycle.

[2] = tested on: Mycobacterium tuberculosis strain EH4.0 expressing green-fluorescent protein (GFP); experiment: microbe, parasite or virus in culture; assay type: cell-based
[3] = LM CLint (microsomal stability), mouse; assay type: in vitro ADME; conditions: 1 μm; for microsomal CLint at 1 µM: microsomes, read-out: CLint Microsomes, Mouse (m)
Description: as §1
(§2) CLint Microsomes (μL/Min/Mg) in Dog (d), Human (h), Mouse (m) and Rat (r) (all at 1 μm)

[4] = Chemical stability testing (LCMS); assay type: physicochemical
Protocol: • Add 3 μl of a 10 mM DMSO stock solution to 1 ml of the following solvents in a 1.5 ml HPLC vial. • DMSO (reference solution) • H2O/Acetonitril 1/1 (assay solution) • 0.1N HCl/Acetonitril 1/1 (assay solution) • Mix well, […] LCMS • Compare the chromatograms of the two assay solutions with the reference solution and report the additional peaks as degradation peaks

[5] = LM CLint (microsomal stability), human; assay type: in vitro ADME; conditions: for microsomal CLint at 1 µM: liver microsomes, read-out: CLint Microsomes, Human (h); for CLint Microsomes, Human (h): 1 μm
Description: as §1, §2

[6] = LM CLint (microsomal stability), dog; assay type: in vitro ADME; conditions: microsomes, 1 μm, read-out: CLint Microsomes, Dog (d)
Description: as §1, §2

[7] = LM CLint (microsomal stability), rat; assay type: in vitro ADME; conditions: microsomes, 1 μm, read-out: CLint Microsomes, Rat (r)
Description: as §1, §2

[8] = Mycobacterium tuberculosis, Test 1 (and/or Test 2), M. tuberculosis
[9] = galactose medium (Glu/Gal mitotoxicity assay), read-out: IC50, gal
[10] = glucose medium (Glu/Gal mitotoxicity assay), read-out: IC50, glu

Compound | IC50 ([1]; read-out: IC50, gal) | IC50 ([1]; read-out: IC50, glu) | microsomal CLint at 1 µM [3] | microsomal CLint at 1 µM [5] | IC50 [1, 9] | IC50 [1, 10] | AC50 [2, 8] | further results
CCc1nc2cc(NC)c(Cl)cn2c1C(=O)NCc1ccc(-c2nc3n(n2)CCN(S(=O)(=O)C(F)(F)F)C3)c(F)c1 [Compound 13] | 23.5 µM | 29.5 µM |  |  |  |  |  | Score [1]: [x]1; Δ IC50, glu/IC50, gal [1]: 1.25; IC50 [2, 8]: > 0.5 µM
CCc1nc2ccc(Cl)cn2c1C(=O)NCc1cnc(-c2nc3n(n2)CCN(S(=O)(=O)C(F)(F)F)C3)c(F)c1 [Compound 15] | > 200 µM | > 200 µM | 50.6 µL/min/mg | 16.2 µL/min/mg |  |  |  | chemical stability, % by LCMS ([4]; 72 h, 30 µM): 97.03%; chemical stability, % by LCMS ([4]; 72 h, 30 µM, pH 1.6): 97.49%
CCc1nc2nc3c(cn2c1C(=O)NCc1ccc(-c2nc4n(n2)CCN(S(=O)(=O)C(F)(F)F)C4)c(F)c1)CCOC3 [Compound 18] | 184 µM | > 200 µM | 36.9 µL/min/mg | 20.1 µL/min/mg |  |  |  | Score [1]: [x]1; Δ IC50, glu/IC50, gal [1]: >1.09
CCc1nc2cc(Cl)c(C)cn2c1C(=O)NCc1ccc(-c2nc3n(n2)CCN(S(=O)(=O)C(F)(F)F)C3)c(F)c1 [Compound 19] |  |  |  |  | > 25 µM | > 25 µM |  | IC50 [2, 8]: 0.331 µM
CCc1nc2ccc(C)cn2c1C(=O)NCc1ccc(-c2nc3n(n2)CCN(S(=O)(=O)C(F)(F)F)C3)cc1 [Compound 24] | > 200 µM | > 200 µM | 76.3 µL/min/mg | 169 µL/min/mg |  |  |  | chemical stability, % by LCMS ([4]; 0 h, 30 µM): 100%; chemical stability, % by LCMS ([4]; 0 h, 30 µM, pH 1.6): 100%; chemical stability, % by LCMS ([4]; 0 h, 30 µM, pH 9): 89.46%; chemical stability, % by LCMS ([4]; 48 h, 30 µM): 100%; chemical stability, % by LCMS ([4]; 48 h, 30 µM, pH 1.6): 100%; chemical stability, % by LCMS ([4]; 48 h, 30 µM, pH 9): 43.8%
CCc1nc2ncc(C)cn2c1C(=O)NCc1ccc(-c2cc3n(n2)CCN(S(=O)(=O)C(F)(F)F)C3)cc1 [Compound 44] | > 200 µM | > 200 µM | 20 µL/min/mg | 176 µL/min/mg |  |  |  | chemical stability, % by LCMS ([4]; 48 h, 30 µM): 100%; chemical stability, % by LCMS ([4]; 48 h, 30 µM, pH 1.6): 100%
CCc1nc2ncc(C)cn2c1C(=O)NCc1ccc(-c2nc3n(n2)CCN(S(=O)(=O)N2CCCC2)C3)cc1 [Compound 47] | > 200 µM | > 200 µM | 13.9 µL/min/mg | 58.5 µL/min/mg |  |  |  | chemical stability, % by LCMS ([4]; 48 h, 30 µM): 99%; chemical stability, % by LCMS ([4]; 48 h, 30 µM, pH 1.6): 100%
CCc1nc2ncc(C)cn2c1C(=O)NCCc1ccc(-c2nc3n(n2)CCN(S(=O)(=O)C(F)(F)F)C3)cc1 [Compound 66] | > 200 µM | > 200 µM | 92.3 µL/min/mg | 39.6 µL/min/mg |  |  |  | chemical stability, % by LCMS ([4]; 0 h, 30 µM): 91%; chemical stability, % by LCMS ([4]; 48 h, 30 µM): 98%; chemical stability, % by LCMS ([4]; 48 h, 30 µM, pH 1.6): 98%; IC50 [2, 8]: 0.269 µM
CCc1nc2ncc(C)cn2c1C(=O)NC1(c2ccc(-c3nc4n(n3)CCN(S(=O)(=O)C(F)(F)F)C4)cc2)CC1 [Compound 68] | > 100 µM | > 100 µM |  |  |  |  |  | IC50 [2, 8]: > 0.501 µM
CCc1nc2ncc(C)cn2c1C(=O)NCc1cccc(Cc2nc3n(n2)CCN(S(=O)(=O)C(F)(F)F)C3)c1 [Compound 71] | > 200 µM | > 200 µM |  |  |  |  |  | IC50 [2, 8]: > 0.501 µM
CCc1nc2ncc(C)cn2c1C(=O)NCc1coc(-c2nc3n(n2)CCN(S(=O)(=O)C(F)(F)F)C3)n1 [Compound 72] | > 200 µM | > 200 µM |  |  |  |  |  | IC50 [2, 8]: > 0.501 µM
CCc1nc2ncc(C)cn2c1C(=O)NCc1ccc(-c2cn3c(n2)CN(S(=O)(=O)C(F)(F)F)CC3)c(F)c1 [Compound 80] |  |  |  |  | > 200 µM | > 200 µM |  | CLint Microsomes, Mouse (m) [3]: 13.2 μL/Min/Mg; chemical stability, % by LCMS ([4]; ACN/0.1N HCl (pH 1.6; 0 hr, rt)): 100%; chemical stability, % by LCMS ([4]; ACN/0.1N HCl (pH 1.6; 48 hr, rt)): 100%; chemical stability, % by LCMS ([4]; ACN/0.1N NaOH (pH 9-10; 0 hr, rt)): 76.8%; chemical stability, % by LCMS ([4]; ACN/0.1N NaOH (pH 9-10; 48 hr, rt)): 16.8%; chemical stability, % by LCMS ([4]; DMSO (0 hr, rt)): 100%; chemical stability, % by LCMS ([4]; DMSO (48 hr, rt)): 100%; pIC50 [2]: 8.06; CLint Microsomes, Human (h) [5]: 39.8 μL/Min/Mg
CCc1nc2ccc(C)cn2c1C(=O)NCc1ccc(-c2cc3n(n2)CCN(S(=O)(=O)C(F)(F)F)C3)cc1 [Compound 81] | > 200 µM | > 200 µM | 74.8 µL/min/mg | > 347 µL/min/mg |  |  |  | chemical stability, % by LCMS ([4]; 0 h, 30 µM): 95%; chemical stability, % by LCMS ([4]; 48 h, 30 µM): 100%; chemical stability, % by LCMS ([4]; 48 h, 30 µM, pH 1.6): 100%; microsomal CLint at 1 µM [6]: 189 µL/min/mg; microsomal CLint at 1 µM [7]: 80.7 µL/min/mg
CCc1nc2ncc(C)cn2c1C(=O)NCc1ccc(-c2cc3n(n2)CCN(S(=O)(=O)C(F)(F)F)C3)c(C)c1 [Compound 84] |  |  |  |  | 62.5 µM | > 200 µM |  | CLint Microsomes, Mouse (m) [3]: 21.2 μL/Min/Mg; Δ IC50, glu/IC50, gal [1]: >3.2; AC50 [2]: 0.0076 µM; CLint Microsomes, Human (h) [5]: 205 μL/Min/Mg
CCc1nc2ncc(C)cn2c1C(=O)NCc1ccc(-c2nn3c(c2C)CN(S(=O)(=O)C(F)(F)F)CC3)cc1 [Compound 85] |  |  |  |  | 30.1 µM | > 200 µM |  | Score [1]: [x]3; Δ IC50, glu/IC50, gal [1]: >6.65; AC50 ([2]; Test 1 (and/or Test 2), M. tuberculosis): 0.018 µM
CCc1nc2ncc(C)cn2c1C(=O)NCc1ccc(-c2nc3n(c2C)CCN(S(=O)(=O)C(F)(F)F)C3)cc1 [Compound 86] | > 100 µM | > 100 µM |  |  |  |  | 0.03 µM | 
CCc1nc2ncc(C)cn2c1C(=O)NCc1ccc(-c2nn3c(c2C)CN(S(=O)(=O)C(F)(F)F)CC3)c(F)c1 [Compound 87] |  |  |  |  | 25.4 µM | 85.8 µM |  | Δ IC50, glu/IC50, gal [1]: 3.38; AC50 [2]: 0.036 µM
CCc1nc2ncc(C)cn2c1C(=O)NCc1cccc(-c2cnn3c2CN(S(=O)(=O)C(F)(F)F)CC3)c1 [Compound 92] | 133 µM | 195 µM |  |  |  |  | > 0.5 µM | Score [1]: [x]1; Δ IC50, glu/IC50, gal [1]: 1.47
Cc1cnc2nc(C3CC3)c(C(=O)NCc3ccc(-c4cn5c(n4)CN(S(=O)(=O)C(F)(F)F)CC5)cc3)n2c1 [Compound 94] | > 200 µM | > 200 µM | 18.1 µL/min/mg | 98.1 µL/min/mg |  |  | 0.063 µM | 
Cc1cnc2nc(C3CC3)c(C(=O)NCc3ccc(-c4nc5n(n4)CCN(S(=O)(=O)C(F)(F)F)C5)c(C)c3)n2c1 [Compound 98] | 97.8 µM | 177 µM | 26.9 µL/min/mg | 51.8 µL/min/mg |  |  | 0.017 µM | Score [1]: [x]1; Δ IC50, glu/IC50, gal [1]: 1.81
O=C(NCc1ccc(-c2cc3n(n2)CCN(S(=O)(=O)C(F)(F)F)C3)cc1)c1c(C2CC2)nc2ncc(Cl)cn12 [Compound 104] |  |  |  |  | > 50 µM | > 50 µM | 0.11 µM | 
Cc1cnc2nc(C3CC3)c(C(=O)NCc3ccc(-c4cc5n(n4)CCN(S(=O)(=O)C(C)C)C5)cc3)n2c1 [Compound 106] | > 100 µM | > 100 µM | 83.4 µL/min/mg | 111 µL/min/mg |  |  |  | 
Cc1cnc2nc(C3CC3)c(C(=O)NCc3ccc(-c4cn5c(n4)CN(S(=O)(=O)C(F)(F)F)CC5)c(F)c3)n2c1 [Compound 112] |  |  |  |  | > 100 µM | > 100 µM | 0.0095 µM | 
Cc1cnc2nc(C(F)(F)F)c(C(=O)NCc3ccc(-c4nc5n(n4)CCN(S(=O)(=O)C(F)(F)F)C5)cc3)n2c1 [Compound 113] |  |  |  |  | > 100 µM | > 100 µM | 0.032 µM | 
Cc1cnc2nc(C(F)(F)F)c(C(=O)NCc3ccc(-c4cc5n(n4)CCN(S(=O)(=O)C(F)(F)F)C5)cc3)n2c1 [Compound 114] |  |  |  |  | > 12.5 µM | > 12.5 µM | 0.0098 µM | 
O=C(NCc1ccc(-c2nc3n(n2)CCN(S(=O)(=O)C(F)(F)F)C3)c(F)c1)c1c(C2CC2)nc2ccccn12 [Compound 123] |  |  |  |  | > 100 µM | > 100 µM | 0.018 µM | 
CCc1nc2ncc(C)cn2c1C(=O)NCc1ccc(-c2cc3n(n2)CCN(S(=O)(=O)C(F)(F)F)C3)nc1 [Compound 127] | > 200 µM | > 200 µM | 9.29 µL/min/mg | 31.5 µL/min/mg |  |  | 0.049 µM | 
CCc1nc2ncc(C)cn2c1C(=O)NCc1cnc(-c2cc3n(n2)CCN(S(=O)(=O)C(F)(F)F)C3)c(C)c1 [Compound 129] | > 200 µM | > 200 µM | 29.4 µL/min/mg | 50.4 µL/min/mg |  |  |  | 

— patent US20240199651A1, “ANTIBACTERIAL COMPOUNDS” (JANSSEN SCIENCES IRELAND UNLIMITED COMPANY, priority 2021, published 2024)
